Measurements as given in patent publication US10000473B2, “Indazole derivatives useful as glucagon receptor antagonists” (Janssen Pharmaceutica NV, priority 2016, dated 2018).
pKi: −log10 of the molar value. “And” between values parts separate entries of the source, which are not always exact repeats. Identical values can stand only once.

The compounds below were run against T1, human GCGR (Homo sapiens, UniProt P47871) (assay: Cellular functional assay, cAMP readout (glucagon-stimulated cAMP, LANCE TR-FRET)). Details: HEK293 cells stably expressing full-length human GCGR; glucagon 100 pM; IC50 converted to Ki; read-out: Inhibition of cAMP Ki.
T1 construct: expressed in transfected cells; host or cells: HEK293 (hGluc-1HEK), pcDNA3.1, G418 selection
Assay type: cell-based

T1 sequence (P47871 26-477): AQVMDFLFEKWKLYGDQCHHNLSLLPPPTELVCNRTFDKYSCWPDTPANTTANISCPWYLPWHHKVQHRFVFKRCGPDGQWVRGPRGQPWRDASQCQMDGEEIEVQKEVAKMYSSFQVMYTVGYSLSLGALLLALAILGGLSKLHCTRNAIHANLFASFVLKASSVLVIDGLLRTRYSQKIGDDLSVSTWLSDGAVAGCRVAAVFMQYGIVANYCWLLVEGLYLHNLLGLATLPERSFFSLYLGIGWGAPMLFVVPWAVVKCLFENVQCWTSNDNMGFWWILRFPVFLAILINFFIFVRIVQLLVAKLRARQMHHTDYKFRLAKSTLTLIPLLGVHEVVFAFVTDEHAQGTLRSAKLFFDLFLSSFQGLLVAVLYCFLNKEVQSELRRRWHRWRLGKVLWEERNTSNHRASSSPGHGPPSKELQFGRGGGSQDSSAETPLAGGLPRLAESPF

| pKi | SMILES |
| --- | --- |
| 7.19 | O=C(O)CCNC(=O)c1ccc(C(CCC(F)(F)F)n2cc3cc(-c4ccc(C(F)(F)F)cc4Cl)ccc3n2)cc1 (stereo not shown) [Compound #16, 3-[[4-[1-[5-[2-Chloro-4-(trifluoromethyl)phenyl]indazol-2-yl]-4,4,4-trifluorobutyl]benzoyl]amino]propanoic acid] |
| 5.90 | CC(C)C[C@H](c1ccc(C(=O)NCCC(=O)O)cc1)n1ncc2cc(-c3ccc(C(F)(F)F)cc3Cl)ccc21 [Compound #85, 3-[[4-[(1R)-1-[5-[2-Chloro-4-(trifluoromethyl)phenyl]indazol-1-yl]-3-methyl-butyl]benzoyl]amino]propanoic acid] |
| 5.64 | CC(C)CC(c1ccc(C(=O)NCCC(=O)O)cc1)n1ncc2cc(-c3cnn(C)c3)ccc21 (stereo not shown) [Compound #12, 3-(4-(3-Methyl-1-(5-(1-methyl-1H-pyrazol-4-yl)-1H-indazol-1-yl)butyl)benzamido)propanoic acid] |
| < 5.59 | CC(C)CC(c1ccc(C(=O)NCCC(=O)O)nc1)n1ncc2cc(-c3cc(Cl)cc(Cl)c3)ccc21 (stereo not shown) [compound 119] |
| 7.38 | Cc1cc(Cl)ccc1-c1ccc2nn(C(CC3CCCCC3)c3ccc(C(=O)NCCC(=O)O)cc3)cc2c1 (stereo not shown) [compound 153] |
| 6.64 | COc1ccc2sc(-c3ccc4c(cnn4C(CC(C)C)c4ccc(C(=O)NCCC(=O)O)cc4)c3)cc2c1 (stereo not shown) [compound 132] |
| 7.38 | Cc1cc(Cl)ccc1-c1ccc2nn(C(CC3CCCCC3)c3ccc(C(=O)NCCC(=O)O)nc3)cc2c1 (stereo not shown) [compound 249] |
| 6.19 | CCCC(c1ccc(C(=O)NCCC(=O)O)cc1)n1ncc2cc(-c3ccc(C(C)(C)C)cc3)ccc21 (stereo not shown) [Compound #56, 3-(4-(1-(5-(4-(tert-Butyl)phenyl)-1H-indazol-1-yl)butyl)benzamido)propanoic acid] |
| 7.62 | Cc1ccc(-c2ccc3nn(C(CC(C)C)c4ccc(C(=O)NCCC(=O)O)cc4)cc3c2C)c(C)c1 (stereo not shown) [Compound #143, 3-(4-(1-(5-(2,4-Dimethylphenyl)-4-methyl-2H-indazol-2-yl)-3-methylbutyl)benzamido)propanoic acid] |
| 6.70 | CC(C)(F)CC(c1ccc(C(=O)NCCC(=O)O)cc1)n1cc2cc(-c3ccc(C(F)(F)F)cc3)ccc2n1 (stereo not shown) [Compound #256, 3-(4-(3-Fluoro-3-methyl-1-(5-(4-(trifluoromethyl)phenyl)-2H-indazol-2-yl)butyl)benzamido)propanoic acid] |
| 6.55 | CC(C)CC(c1ccc(C(=O)NCCC(=O)O)cc1)n1ncc2cc(-c3cc4ccc(F)cc4s3)ccc21 (stereo not shown) [compound 126] |
| 7.60 | Cc1cc(Cl)ccc1-c1ccc2nn(C(CC(C)C)c3ccc(C(=O)NCCC(=O)O)cc3)cc2c1C (stereo not shown) [Compound #20, 3-(4-(1-(5-(4-Chloro-2-methylphenyl)-4-methyl-2H-indazol-2-yl)-3-methylbutyl)benzamido)propanoic acid] |
| 6.56 | O=C(O)CCNC(=O)c1ccc(C(CCCC(F)(F)F)n2ncc3cc(-c4ccc(C(F)(F)F)cc4)ccc32)cc1 (stereo not shown) [compound 234] |
| 7.33 | Cc1cc(C(F)(F)F)ccc1-c1ccc2nn(C(CCC(F)(F)F)c3ccc(C(=O)NCCC(=O)O)cc3)cc2c1 (stereo not shown) [Compound #50, 3-[[4-[4,4,4-Trifluoro-1-[5-[2-methyl-4-(trifluoromethyl)phenyl]indazol-2-yl]butyl]benzoyl]amino]propanoic acid] |
| 6.59 | CCCCCC(c1ccc(C(=O)NCCC(=O)O)cc1)n1ncc2cc(-c3ccc(C(C)(C)C)cc3)ccc21 (stereo not shown) [compound 88] |
| 6.57 | Cc1cc(Cl)ccc1-c1ccc2nn(C(CC(C)C)c3ccc(C(=O)NCCC(=O)O)nc3)cc2c1 (stereo not shown) [Compound #252, 3-(5-(1-(5-(4-Chloro-2-methylphenyl)-2H-indazol-2-yl)-3-methylbutyl)picolinamido)propanoic acid] |

| pKi | SMILES |
| --- | --- |
| 6.72 | CC(C)CC(c1ccc(C(=O)NCCC(=O)O)cc1)n1ncc2cc(-c3ccc(Cl)cc3Cl)ccc21 (stereo not shown) [Compound #9, 3-(4-(1-(5-(2,4-Dichlorophenyl)-1H-indazol-1-yl)-3-methylbutyl)benzamido)propanoic acid] |
| 6.59 | O=C(O)CCNC(=O)c1ccc(C(CCC2CCC2)n2ncc3cc(-c4ccc(C(F)(F)F)cc4)ccc32)cc1 (stereo not shown) [Compound #239, 3-(4-(3-Cyclobutyl-1-(5-(4-(trifluoromethyl)phenyl)-1H-indazol-1-yl)propyl)benzamido)propanoic acid] |
| 7.05 and 6.80 | CC(C)CC(c1ccc(C(=O)NCCC(=O)O)cc1)n1ncc2cc(-c3ccc(C(C)(C)C)cc3)ccc21 (stereo not shown) [Compound #1, 3-(4-(1-(5-(4-(tert-Butyl)phenyl)-1H-indazol-1-yl)-3-methylbutyl)benzamido)propanoic acid] |
| 7.04 | Cc1c(-c2ccc(C(C)(C)C)cc2)ccc2c1cnn2C(CC(C)C)c1ccc(C(=O)NCCC(=O)O)cc1 (stereo not shown) [Compound #47, 3-(4-(1-(5-(4-(tert-Butyl)phenyl)-4-methyl-1H-indazol-1-yl)-3-methylbutyl)benzamido)propanoic acid] |
| 6.81 | CC(C)CCC(c1ccc(C(=O)NCCC(=O)O)cc1)n1ncc2cc(-c3ccc(C(F)(F)F)cc3)ccc21 (stereo not shown) [compound 59] |
| 7.82 | CCOc1c(-c2ccc(C(F)(F)F)cc2C)ccc2c1cnn2C(CC(C)C)c1ccc(C(=O)NCCC(=O)O)nc1 (stereo not shown) [Compound #197, 3-(5-(1-(4-Ethoxy-5-(2-methyl-4-(trifluoromethyl)phenyl)-1H-indazol-1-yl)-3-methylbutyl)picolinamido)propanoic acid] |
| 7.66 | Cc1cc(C(F)(F)F)ccc1-c1ccc2nn([C@@H](CC(C)C)c3ccc(C(=O)NCCC(=O)O)cc3)cc2c1C [Compound #156, 3-[[4-[(1S)-3-Methyl-1-[4-methyl-5-[2-methyl-4-(trifluoromethyl)phenyl]indazol-2-yl]butyl]benzoyl]amino]propanoic acid] |
| 6.22 | O=C(O)CCNC(=O)c1ccc(C(c2ccc(C(F)(F)F)cc2)n2cc3cc(-c4ccc(C(F)(F)F)cc4)ccc3n2)cc1 (stereo not shown) [Compound #66, 3-(4-((4-(Trifluoromethyl)phenyl)(5-(4-(trifluoromethyl)phenyl)-2H-indazol-2-yl)methyl)benzamido)propanoic acid] |
| 6.12 | CC(C)CC(c1ccc(C(=O)NCCC(=O)O)cc1)n1ncc2cc(-c3ccc4cnn(C)c4c3)ccc21 (stereo not shown) [compound 116] |
| 6.87 | O=C(O)CCNC(=O)c1ccc(C(C2CCCCC2)n2cc3cc(-c4ccc(C(F)(F)F)cc4)ccc3n2)cc1 (stereo not shown) [compound 136] |
| 7.00 | COc1c(-c2ccc(C(F)(F)F)cc2Cl)ccc2c1cnn2C(CC(C)C)c1ccc(C(=O)NCCC(=O)O)cc1 (stereo not shown) [Compound #103, 3-(4-(1-(5-(2-Chloro-4-(trifluoromethyl)phenyl)-4-methoxy-1H-indazol-1-yl)-3-methylbutyl)benzamido)propanoic acid] |
| 6.68 | Cc1cc(Cl)ccc1-c1ccc2c(cnn2C(CC(C)(C)C)c2ccc(C(=O)NCCC(=O)O)nc2)c1 (stereo not shown) [compound 238] |
| 6.81 | CCCCCCC(c1ccc(C(=O)NCCC(=O)O)nc1)n1ncc2cc(-c3ccc(C(F)(F)F)cc3)ccc21 (stereo not shown) [compound 193] |
| 6.99 | Cc1cc2c(cnn2C(CC(C)C)c2ccc(C(=O)NCCC(=O)O)cc2)cc1-c1ccc(C(F)(F)F)cc1 (stereo not shown) [Compound #25, 3-[[4-[3-Methyl-1-[6-methyl-5-[4-(trifluoromethyl)phenyl]indazol-1-yl]butyl]benzoyl]amino]propanoic acid] |
| 6.68 | CCCCCCC(c1ccc(C(=O)NCCC(=O)O)cc1)n1ncc2cc(-c3ccc(Cl)cc3C)ccc21 (stereo not shown) [compound 245] |
